According to patent publication US5116834A, “Quinolinecarboxylic acid antibacterial agents” (Warner-Lambert Company, priority 1991, dated 1992):
≈ marks a conversion by molar mass, not a printed value.

Columns and labels:
Experiment in all cases: In vitro antibacterial activity, microtitration dilution method (MIC)
Type in all cases: cell-based
[1] = system: Escherichia coli Vogel; details: read-out: Minimal Inhibitory Concentration (MIC)
Excerpt: (§1) The compounds of the invention display anti-bacterial activity when tested by the microtitration dilution method as described in Heifetz, et al, Antimicr. Agents & Chemoth., 6, 124 (1974), which is incorporated herein by reference.
(§2) By use of the above reference method, the following minimum inhibitory concentration value (MICs in μg/mL) shown in Table I were obtained for representative compounds of the invention.

[2] = system: Staphylococcus aureus UC-76; details: UC76, read-out: Minimal Inhibitory Concentration (MIC)
Excerpt: as §1, §2

[3] = system: Pseudomonas aeroginosa UI-18; details: UI18, read-out: Minimal Inhibitory Concentration (MIC)
Excerpt: as §1, §2

[4] = system: Streptococcus pyogenes C-203; details: C203, read-out: Minimal Inhibitory Concentration (MIC)
Excerpt: as §1, §2

[5] = system: Enterobacter cloacae MA 2646; details: MA2646, read-out: Minimal Inhibitory Concentration (MIC)
Excerpt: as §1, §2

[6] = system: Streptococcus faecalis MGH-2; details: Enterococcus faecalis, MGH2, read-out: Minimal Inhibitory Concentration (MIC)
Excerpt: as §1, §2

[7] = system: Escherichia coli H56; details: read-out: Minimal Inhibitory Concentration (MIC)
Excerpt: as §1, §2

[8] = system: Proteus rettgeri M 1771; details: Providencia rettgeri, M1771, read-out: Minimal Inhibitory Concentration (MIC)
Excerpt: as §1, §2

[9] = system: Streptococcus pneumoniae SV-1; details: SV1, read-out: Minimal Inhibitory Concentration (MIC)
Excerpt: (§3) The compounds of the invention display anti-bacterial activity when tested by the microtitration dilution method as described in Heifetz, et al, […]. Agents & Chemoth., 6, 124 (1974), which is incorporated herein by reference. By use of the above reference method, the following minimum inhibitory concentration value (MICs in μg/mL) shown in Table I were obtained for representative compounds of the invention.

[10] = system: Klebsiella pneumoniae MGH-2; details: MGH2, read-out: Minimal Inhibitory Concentration (MIC)
Excerpt: as §3

[11] = system: Staphylococcus aureus H228; details: read-out: Minimal Inhibitory Concentration (MIC)
Excerpt: as §3

| MIC [1] [µg/mL] | MIC [2] [µg/mL] | MIC [3] [µg/mL] | MIC [4] [µg/mL] | MIC [5] [µg/mL] | MIC [6] [µg/mL] | MIC [7] [µg/mL] | MIC [8] [µg/mL] | MIC [9] [µg/mL] | MIC [10] [µg/mL] | MIC [11] [µg/mL] | SMILES |
| --- | --- | --- | --- | --- | --- | --- | --- | --- | --- | --- | --- |
| 0.1 (≈ 0.269 µM) | 0.1 (≈ 0.269 µM) | 1.6 (≈ 4.31 µM) | 0.2 (≈ 0.538 µM) | 0.1 (≈ 0.269 µM) | 0.4 (≈ 1.08 µM) | 0.05 (≈ 0.135 µM) | 0.4 (≈ 1.08 µM) | 0.2 (≈ 0.538 µM) | 0.2 (≈ 0.538 µM) | 0.2 (≈ 0.538 µM) | C=Cc1c(N2CCNC(C)C2)c(F)cc2c(=O)c(C(=O)O)cn(C3CC3)c12 (stereo not drawn) [Ex. 1, 1-Cyclopropyl-8-ethenyl-6-fluoro-1,4-dihydro-7-(3-methyl-1-piperazinyl)-4-oxo-3-quinolinecarboxylicacid] |
| 0.1 (≈ 0.25 µM) | 0.003 (≈ 0.00751 µM) | 3.1 (≈ 7.76 µM) | 0.013 (≈ 0.0325 µM) | 0.2 (≈ 0.501 µM) | 0.013 (≈ 0.0325 µM) | 0.1 (≈ 0.25 µM) | 0.4 (≈ 1 µM) | 0.003 (≈ 0.00751 µM) | 0.4 (≈ 1 µM) | 0.006 (≈ 0.015 µM) | C=Cc1c(N2CC[C@@H](CNCC)C2)c(F)cc2c(=O)c(C(=O)O)cn(C3CC3)c12 [Ex. 3, 1-Cyclopropyl-8-ethenyl-7-[3(S)-(ethylamino)methyl-1-pyrrolidine]-6-fluoro-1,4-dihydro-4-oxo-3-quinolinecarboxylic acid] |

| SMILES | MIC [1] [µg/mL] | MIC [2] [µg/mL] | MIC [3] [µg/mL] | MIC [4] [µg/mL] | MIC [5] [µg/mL] | MIC [6] [µg/mL] | MIC [7] [µg/mL] | MIC [8] [µg/mL] | MIC [9] [µg/mL] | MIC [10] [µg/mL] | MIC [11] [µg/mL] |
| --- | --- | --- | --- | --- | --- | --- | --- | --- | --- | --- | --- |
| C=Cc1c(N2CCNCC2)c(F)cc2c(=O)c(C(=O)O)cn(C3CC3)c12 [Ex. 2, 1-Cyclopropyl-8-ethenyl-6-fluoro-1,4-dihydro-4-oxo-7-(1-piperazinyl)-3-quinolinecarboxylic acid] | 0.1 (≈ 0.28 µM) | 0.1 (≈ 0.28 µM) | 1.6 (≈ 4.48 µM) | 0.4 (≈ 1.12 µM) | 0.1 (≈ 0.28 µM) | 0.4 (≈ 1.12 µM) | 0.05 (≈ 0.14 µM) | 0.4 (≈ 1.12 µM) | 0.4 (≈ 1.12 µM) | 0.2 (≈ 0.56 µM) | 0.4 (≈ 1.12 µM) |
